Patent US20090062240A1, “Pharmaceutical combinations containing an inhibitor of platelet aggregation and a fibrate” (Fournier Laboratories Ireland Limited, priority 2004, published 2009)

Tested on: rat platelet aggregation
Assay: Ex-vivo rat platelet aggregation induced by arachidonic acid after oral treatment (Born's method, PRP)
Assay type: in vivo
Conditions: for % aggregation upon addition of 1 mM arachidonic acid: rat PRP, mean, n = 8; for reduction in platelet aggregation (in words): 1 mM arachidonic acid
Description: A study was carried out to assess the effect of a combination of a fibrate (fenofibrate) and aspirin on platelet aggregation in this study, fenofibrate and aspirin were co-administered to rats by the oral route (p.o.) and the effects on arachidonic acid-induced platelet aggregation were observed.
40 male OFA-SD (IOPS Caw) rats (C.River, France), weighing in the target range of 300 to 350 g, were included in the study.
They were housed in a temperature (19.5-24.5° C.) and relative humidity (45-65%) controlled room with a 12-h light/dark cycle, with ad libitum access to filtered tap-water and standard pelleted laboratory chow (SAFE, France) throughout the study. Upon receipt at animal facilities, they were housed 4 per cage and at least a 5-day acclimatization period was observed. Animals were individually identified on the tail.
The animals of this study were split into 5 groups of 8 animals as follows:
Group 2: Fenofibrate, 300 mg/kg, p.o.×10 days
Group 3 Aspirin 3 mg/kg, p.o.×1 day
Group 4: Fenofibrate, 300 mg/kg, p.o×10 days+Aspirin 3 mg/kg, p.o.×1 day
Group 5: Aspirin 30 mg/kg, p.o.×1 day
At the end of the acclimatization period, rats were identified on the tail and divided into 10 boxes of 4 rats.
They were then weighed and treated orally once a day during ten consecutive days with the vehicle (1% methylcellulose aqueous solution) or the test substance fenofibrate. On the last day of treatment, the animals were also treated with aspirin as described above. Aspirin (acetyl saliclylic acid) was obtained from Sigma, France and fenofibrate was supplied by Laboratoires Fournier, France. Test substances and the vehicle were administered by p.o. route once a day, in a volume of 5 ml/kg adjusted to the animal weight measured every day before administration.
On the last day of treatment (day 10), 2 hours after the oral gavage, rats were anaesthetised with isoflurane, and blood samples were collected from the abdominal aorta into plastic tubes containing heparin.
PRP (platelet-rich plasma) was then produced by centrifuging the blood obtained at 250 g for 10 minutes using a GPKR centrifuge (Beckman, France). Then samples were then centrifuged again at 2000 g for 10 minutes to obtain the platelet-poor plasma (PPP).
After a platelet count, each PRP sample was adjusted to 6×10^8 platelets/mL with the needed volume of homologous PPP (using T540 Cell Counter, Beckman, France).
Platelet aggregation was recorded using Born's method (Born, Nature, 1962, 194, 927-929) with 0.3 mL of the platelet suspension in disposable glass cuvettes placed in the turbidometric aggregometer (Chrono-Dual 440 aggregometer, Beckman Coulter, France) and stirred at 1100 rev.min^−1 at 37° C.
Platelet aggregation was induced by Arachidonic acid [AA] for each PRP sample tested.
Results were reported as the aggregation amplitude measured in mm and expressed as percentage of maximal aggregation.
Statistical analysis consisted in a one-way analysis of variance followed by multiple comparisons versus the vehicle group (Dunnett's test) on % aggregation values. Where the equal variance test failed, a Kruskall-Wallis one-way analysis of variance on ranks was proposed. A difference is considered significant for p<0.05.

SMILES | % aggregation upon addition of 1 mM arachidonic acid (Aspirin 3 mg/kg p.o. x 1 day, blood 2 h after gavage) | % aggregation upon addition of 1 mM arachidonic acid (Aspirin 30 mg/kg p.o. x 1 day, p < 0.05 vs Control) | reduction in platelet aggregation (in words) (aspirin alone at 3 mg/kg) | % aggregation upon addition of 1 mM arachidonic acid (Fenofibrate 300 mg/kg p.o. x 10 days, blood 2 h after last gavage) | reduction in platelet aggregation (in words) (fenofibrate alone (300 mg/kg))
CC(=O)Oc1ccccc1C(=O)O [Aspirin, Acetylsalicylic acid] | 85.0% | 0.4% | no reduction in platelet aggregation |  | 
CC(C)OC(=O)C(C)(C)Oc1ccc(C(=O)c2ccc(Cl)cc2)cc1 [Fenofibrate, 2-[4-(4-chlorobenzoyl)phenoxy]-2-methyl-propanoic acid, 1-methylethyl ester] |  |  |  | 94.2% | no reduction in platelet aggregation
